Results as given in patent US6525056B2, “Heterocyclyl-substituted ring-fused pyridines and pyrimidines as corticotropin releasing hormone (CRH) antagonists, useful for treating cns and stress-related disorders” (Bristol-Myers Squibb Company, priority 1997, dated 2003).

Molecule `Cc1nc(N2CCc3cc(Cl)cc(Cl)c32)c2c(C)nn(Cc3ccccc3)c2n1` [Example 414] has a melting point of 145 to 146 °C.
`COCC[C@@H](COC)n1nnc2c(N3CCc4cc(Br)cc(Br)c43)nc(C)cc21` [Example 1, (S)-4-(5,7-Dibromo-2,3-dihydro-1H-indol-1-yl)-1-[1-(methoxymethyl)-3-methoxypropyl]-6-methyl-1H-1,2,3-triazolo[4,5-c]pyridine] gave a melting point of 136 to 138 °C.
